Common to all, as to format: cell-based
For experiment [1], the system named is Trypanosoma brucei brucei (Lister 427) strain. The experiment in a line: Assay for growth inhibition against Trypanosoma brucei brucei (Cell TiterGlo ATP luminescence). The note with it: T. brucei brucei (Lister 427), read-out: T. Brucei (HAT) EC50. On the procedure:
Assay for Growth Inhibition Against Trypanosoma brucei brucei
The proliferation is quantified by the addition of Cell TiterGlo® (Promega®) a luminescent cell viability assay that measures the number of viable cells in culture based on the quantification of cellular ATP amount, which is an indicator of metabolically active cells.
Trypanosoma brucei brucei (Lister 427) strain was grown in Hirumi 9 (HMI-9) media supplemented with 10% v/v fetal bovine serum (FBS) and 10% v/v serum plus. For measurement of cell proliferation inhibition, test compounds were three fold serially diluted in duplicates to 384-well white plates, resulting in 10 dilutions for each compound. A volume of 40 μL of T. b. brucei culture (10,000 parasites/mL) was added to each well, and the assay plates were incubated at 37° C. for 2 days in a CO2 incubator. Growth inhibition was monitored by measuring ATP levels, which, is used as a surrogate marker for growth. Relative luminescence units were measured using TECAN® M1000 after 30 min of adding 40 μl of Cell TiterGlo®. IC50 values were determined by analyzing the data using HELIOS software. IC50 is defined as the lowest concentration of the compound that inhibited 50% growth of the T. b. brucei wild type strain compared to untreated controls.
On the technique in general: ATP-based viability assays read luminescence as a measure of living cells.

Experiment [2] deals with Leishmania donovani axenic amastigote. Description: In vitro assay for growth inhibition of Leishmania donovani axenic amastigote (Cell TiterGlo luminescence). The note with it: Leishmania donovani, L. donovani axenic amastigotes in vitro; read-out: L. donovani amastigotes EC50. The procedure:
Abbreviations as used herein below have the corresponding meaning: • CPRG Chlorophenol Red-P-D-galactopyranoside • ATP adenosine triphosphate • BSA bovine serum albumin • DMSO dimethyl sulfoxide • FBS fetal bovine serum • PBS phosphate buffered saline • RPMI 1640 Rosweli Park Memorial Institute (RPMI) 1640 medium In Vitro Assay for Growth Inhibition of Leishmania donovani Axenic Amastiqote
Leishmania donovani axenic amastigote parasites are grown at 37° C., 5% CO2 in media made of RPMI 1640, 4 mM L-glutamine, 20% heat inactivated FBS, 100 units/ml of penicillin and 100 μg/ml of streptomycin, 23 μM folic acid, 100 μM adenosine, 22 mM D-glucose, 25 mM MES. The pH of media is adjusted to 5.5 at 37° C. using HCl. 20 μL of media is first dispensed into 384 well plates and 100 nL of the compounds of invention in DMSO are added to the plate wells. At the same time control compounds and DMSO are added to plates to serve as the positive and negative controls, respectively. 40 μL of parasite culture (9600 parasites) are then added to the plate wells. The plates are then placed into incubators. After two days incubation, 20 μL of Cell TiterGlo® (Promega) is added to the plate wells. The luminescence signal of each well is measured using the Envision reader (Perkin Elmer).

Experiment [3] has as its system Trypanosoma cruzi amastigotes cultured in 3T3 fibroblast cells. The experiment in a line: Assay for growth inhibition of kinetoplastid parasite Trypanosoma cruzi (beta-galactosidase Tulahuen strain, CPRG readout). The note with it: Trypanosoma cruzi, Fibroblast, T. cruzi amastigotes in 3T3 fibroblast cells; read-out: Buckner infectious T. cruzi EC50. From the text:
Assay for Growth Inhibition of Kinetoplastid Parasite Trypanosoma cruzi
Compounds of the invention can be assayed for inhibitor activity against Trypanosoma cruzi amastigotes cultured in 3T3 fibroblast cells. The assay is done using the mammalian stage (amastigotes) of T. cruzi that replicates in the intracellular space of host cells. The host cells are initially infected with the culture-derived trypomastigotes that rapidly invade and then divide as amastigotes. The protocol uses the Tulahuen strain of T. cruzi that has been engineered to express the E. coli beta-galactosidase gene (Lac-Z) (Antimicr. Agents Chemoth. 40:2592, 1996). This allows for a colorimetric readout by using the substrate CPRG and an absorbance plate reader.
3T3 fibroblast cells are re-suspended in RPMI-1640 medium without phenol red medium supplemented with 10% FBS (heat inactivated), 100 μg/ml penicillin, and 100 μg/ml streptomycin. Forty μL of suspension (1,000 cells) is dispensed into 384-well plates and incubated overnight at 37° C. temperature and in atmosphere containing 5% CO2. The following day, 100 nL of compounds of the invention in DMSO are added to plate wells containing 3T3 cells. At the same time control compounds (benznidazole and nifurtimox) and DMSO are added to plates to serve as the positive and negative controls, respectively. After that, 10 μL of media containing 10,000 T. cruzi trypomastigotes are added to each plate well and plates are placed back into incubators. After 6 day incubation, 10 μL of reagent solution (0.6 mM CPRG, 0.6% NP-40 in PBS) is added to plates and incubated at room temperature for 2 hours. Absorbance is then measured on SpectraMax GEMINI fluorimeter to determine relative number of T. cruzi cells present in each plate well.

This is an account of results in patent publication US11384078B2, “5,6-fused-bicyclic compounds and compositions for the treatment of parasitic diseases” (NOVARTIS AG, priority 2017, dated 2022).

Like-named read-outs stand apart in the source and are kept apart here. Some results are limits rather than exact numbers.

As to `O=C(Nc1ccc(F)c(-n2cc3cc(C4COCCO4)cnc3n2)c1)N1CCC1` (stereo not shown) [Compound 289, N-{3-[5-(1,4-dioxan-2-yl)-2H-pyrazolo[3,4-b]pyridin-2-yl]-4-fluorophenyl}azetidine-1-carboxamide], the EC50 in experiment [1] (Trypanosoma brucei) is 208 nM; in experiment [2], 199 nM.

`O=C(Nc1ccc(F)c(-n2cc3cc(-c4ccccn4)cnc3n2)c1)C1CC1` [Compound 12, N-{4-fluoro-3-[5-(pyridin-2-yl)-2H-pyrazolo[3,4-b]pyridin-2-yl]phenyl}cyclopropanecarboxamide]: the values for the EC50 in experiment [1] (Trypanosoma brucei) and in experiment [2] were below 23 nM and 41 nM, respectively.

Regarding `O=C(Nc1ccc(F)c(-n2cc3cc(N4CC5CCC(C4)O5)cnc3n2)c1)N1CC(F)C1` [Compound 184, 3-fluoro-N-[4-fluoro-3-(5-{8-oxa-3-azabicyclo[3.2.1]octan-3-yl}-2H-pyrazolo[3,4-b]pyridin-2-yl)phenyl}azetidine-1-carboxamide], the EC50 in experiment [1] (Trypanosoma brucei) is below 23 nM; in experiment [2], 7.3 nM.

On to `O=C(Nc1ccc(F)c(-n2cc3cc(N4CC(F)C4)cnc3n2)c1)N1CCC1` [Compound 40, N-{4-fluoro-3-[5-(3-fluoroazetidin-1-yl)-2H-pyrazolo[3,4-b]pyridin-2-yl]phenyl}azetidine-1-carboxamide], for which the EC50 in experiment [1] was below 23 nM.

Regarding `COCCNc1cnc2nn(-c3cc(NC(=O)N4CC(F)C4)ccc3F)cc2c1` [Compound 185, 3-fluoro-N-(4-fluoro-3-{5-[(2-methoxyethyl)amino]-2H-pyrazolo[3,4-b]pyridin-2-yl]phenyl)azetidine-1-carboxamide], the 50% effective concentration (EC50) in experiment [1] (Trypanosoma brucei) was below 23 nM; in experiment [2], 200 nM.

In the case of `O=C(CC1CC1)Nc1ccc(F)c(-n2cc3cc(-c4ccccn4)cnc3n2)c1` [Compound 13, 2-cyclopropyl-N-{4-fluoro-3-[5-(pyridin-2-yl)-2H-pyrazolo[3,4-b]pyridin-2-yl]phenyl}acetamide], the EC50 in experiment [1] (Trypanosoma brucei) was below 23 nM; in experiment [2], 71 nM.

In the case of `O=C(Nc1ccc(F)c(-n2cc3cc(-c4cccnc4)cnc3n2)c1)N1CC(F)C1` [Compound 189, 3-fluoro-N-{4-fluoro-3-[5-(pyridin-3-yl)-2H-pyrazolo[3,4-b]pyridin-2-yl]phenyl}azetidine-1-carboxamide], the EC50 in experiment [1] (Trypanosoma brucei) was below 23 nM; in experiment [2], 3 nM.

As for `[2H]C([2H])([2H])c1nc(C)c(C(=O)Nc2ccc(F)c(-n3cc4cc(-c5ncccc5C)cnc4n3)c2)o1` [Compound 278, N-{4-fluoro-3-[5-(3-methylpyridin-2-yl)-2H-pyrazolo[3,4-b]pyridin-2-yl]phenyl}-2-(^2H3)methyl-4-methyl-1,3-oxazole-5-carboxamide], the EC50 in experiment [1] (Trypanosoma brucei) came to 13 nM; in experiment [2] it was 7 nM.

Consider `COCC1CN(c2cnc3nn(-c4cc(NC(=O)N5CC(F)C5)ccc4F)cc3c2)C1` [Compound 192], for which the concentration for a half-maximal effect (EC50) in experiment [1] was below 23 nM.

With `O=C(Nc1ccc(F)c(-n2cc3cc(N4CCn5cnnc5C4)cnc3n2)c1)N1CC(F)C1` [Compound 186, 3-fluoro-N-[4-fluoro-3-(5-{5H,6H,7H,8H-[1,2,4]triazolo[4,3-a]pyrazin-7-yl}-2H-pyrazolo[3,4-b]pyridin-2-yl)phenyl}azetidine-1-carboxamide], the EC50 in experiment [1] (Trypanosoma brucei) worked out at 240 nM; in experiment [2], 460 nM.

Consider `O=C(Nc1ccc(F)c(-n2cc3cc(-c4ncccc4Cl)cnc3n2)c1)N1CC(F)C1` [Compound 188, N-{3-[5-(3-chloropyridin-2-yl)-2H-pyrazolo[3,4-b]pyridin-2-yl]-4-fluorophenyl}-3-fluoroazetidine-1-carboxamide], for which the values for the concentration for a half-maximal effect (EC50) in experiment [1] (Trypanosoma brucei) and in experiment [2] were below 23 nM and 2.4 nM, respectively.

Consider `C[C@@H]1CN(c2cnc3nn(-c4cc(NC(=O)N5CC(F)C5)ccc4F)cc3c2)C[C@H](C)O1` [Compound 190, N-(3-{5-[(2R,6S)-2,6-dimethylmorpholin-4-yl]-2H-pyrazolo[3,4-b]pyridin-2-yl]-4-fluorophenyl)-3-fluoroazetidine-1-carboxamide], for which the EC50 in experiment [1] was above 50000 nM.

With `O=C(Nc1ccc(F)c(-n2cc3cc(C4CCCCO4)cnc3n2)c1)N1CCC1` (stereo not shown) [Compound 288, N-(4-fluoro-3-(5-(tetrahydro-2H-pyran-2-yl)-2H-pyrazolo[3,4-b]pyridin-2-yl)phenyl)azetidine-1-carboxamide], the values for the EC50 in experiment [1] (Trypanosoma brucei) and in experiment [2] were 260 nM and 176 nM, respectively.

Consider `O=C(Nc1ccc(F)c(-n2cc3cc(N4CC(F)C4)cnc3n2)c1)N1CC(F)C1` [Compound 58, 3-fluoro-N-{4-fluoro-3-[5-(3-fluoroazetidin-1-yl)-2H-pyrazolo[3,4-b]pyridin-2-yl]phenyl}azetidine-1-carboxamide], for which the EC50 in experiment [1] is below 23 nM.

Turning to `O=C(Nc1ccc(F)c(-n2cc3cc(-c4ncccc4F)cnc3n2)c1)N1CC(F)C1` [Compound 187, 3-fluoro-N-(4-fluoro-3-(5-(3-fluoropyridin-2-yl)-2H-pyrazolo[3,4-b]pyridin-2-yl)phenyl)azetidine-1-carboxamide], the EC50 was below 23 nM in experiment [1] (Trypanosoma brucei) and 1.3 nM in experiment [2].

As to `O=C(Nc1ccc(F)c(-n2cc3cc(N4CCC45COC5)cnc3n2)c1)N1CC(F)C1` [Compound 191, 3-fluoro-N-[4-fluoro-3-(5-{6-oxa-1-azaspiro[3.3]heptan-1-yl}-2H-pyrazolo[3,4-b]pyridin-2-yl)phenyl}azetidine-1-carboxamide], the EC50 in experiment [1] was below 23 nM.

For `O=C(Nc1ccc(F)c(-n2cc3cc(N4CC(F)(F)C4)cnc3n2)c1)N1CCC1` [Compound 92, N-{3-[5-(3,3-difluoroazetidin-1-yl)-2H-pyrazolo[3,4-b]pyridin-2-yl]-4-fluorophenyl}azetidine-1-carboxamide], the concentration for a half-maximal effect (EC50) in experiment [1] is below 23 nM.

On to `O=C(Nc1ccc(F)c(-n2cc3cc(N4C[C@@H](F)[C@H](F)C4)cnc3n2)c1)N1CC(F)C1` [Compound 194, N-(3-{5-[(3R,4R)-3,4-difluoropyrrolidin-1-yl]-2H-pyrazolo[3,4-b]pyridin-2-yl]-4-fluorophenyl)-3-fluoroazetidine-1-carboxamide], for which the EC50 in experiment [1] is below 23 nM.

On to `O=C(Nc1ccc(F)c(-n2cc3cc(N4CC5(CC5)C4)cnc3n2)c1)N1CC(F)C1` [Compound 193, N-[3-(5-{5-azaspiro[2.3]hexan-5-yl}-2H-pyrazolo[3,4-b]pyridin-2-yl)-4-fluorophenyl}-3-fluoroazetidine-1-carboxamide], for which, in experiment [1], the EC50 was below 23 nM.

Turning to `CC(C)c1cnc2nn(-c3cc(NC(=O)C4CC(F)C4)ccc3F)cc2c1` (stereo not shown) [Compound 121, 3-fluoro-N-{4-fluoro-3-[5-(propan-2-yl)-2H-pyrazolo[3,4-b]pyridin-2-yl]phenyl}cyclobutane-1-carboxamide], the EC50 is 120 nM in experiment [1] (Trypanosoma brucei) and 210 nM in experiment [2].

Take `CC(C)c1cnc2nn(-c3cc(NC(=O)c4ccc(F)o4)ccc3F)cc2c1` [Compound 113, 5-fluoro-N-{4-fluoro-3-[5-(propan-2-yl)-2H-pyrazolo[3,4-b]pyridin-2-yl]phenyl}furan-2-carboxamide]: the EC50 in experiment [3] stood at 5.22 nM; in experiment [2] it was 37 nM.

The term EC50 denotes the concentration needed to bring the measured effect to its halfway point.
